In patent publication US20240050601A1, “COMPOSITIONS AND ASSOCIATED METHODS FOR SUSTAINED-RELEASE OF RADIOACTIVE AGENTS AND THEIR APPLICATIONS” (priority 2020, published 2024):

Legend:
[1] = test system: myeloproliferative neoplasms (MPNs); conditions: low dose range (5-7 mCi per intravenous injection, total up to 4 injections); cited from earlier work
in vivo = conditions: Balb/C, mouse
Experimental: The hydrogel was prepared, kept in a 4° C. refrigerator overnight ensuring a complete mixing, and balanced to ambient temperature prior to the administration. The molecular weight of ICG is 775 Da, which was used here as an example of small molecule. Two animal groups with different route of subcutaneous (s.c.) or intramuscular (i.m.) injection was assessed with an injection volume of 500 μl or 50 μl, respectively. The imaging was conducted for the animals immediately after hydrogel administration (within 1 minute), and then at predetermined time points of post injection.

| half-life (in vivo; im, 50 μl) | half-life (in vivo; sc, 500 μl) | SMILES | tolerability and efficacy in MPNs [1] |
| --- | --- | --- | --- |
| – | – | O=[32P](O)(O)O [phosphate P-32] | well-tolerated and efficacious |
| ~4 h | ~24 h | CC1(C)C(/C=C/C=C/C=C/C=C2\N(CCCCS(=O)(=O)O)c3ccc4ccccc4c3C2(C)C)=[N+](CCCCS(=O)(=O)[O-])c2ccc3ccccc3c21 [TCG, indocyanine green] | – |
